According to patent US20130143902A1, “COMPOSITIONS AND METHODS OF TREATING A PROLIFERATIVE DISEASE WITH A QUINAZOLINONE DERIVATIVE” (GILEAD CALISTOGA LLC, priority 2011, published 2013):
Each block holds one molecule with its values, some of them ahead of it.

How the values were obtained:
[1] = tested on: CCRF-CEM cells; experiment: Proliferation and apoptosis of CCRF-CEM cells; format: cell-based; conditions: 1, 2.5, or 5 μM, within 24 hours, persisted 4 days
Method: CCRF-CEM cells were obtained from ATCC and grown in RPMI-1640 medium containing 10% FBS and antibiotics.
Cell counts for mice thymii were determined as described in Swat, W. et al., Essential role of PI3 Kdelta and PI3 Kgamma in thymocyte survival, Blood 107, 2415-2422 (2006). Cell proliferation of untransfected or shRNA transfected CCRF-CEM cells was followed by cell counting of samples in triplicate using a hemocytometer.
Cells were stained with APC-conjugated Annexin-V (BD Biosciences) in Annexin Binding Buffer (Miltyeni Biotec) and analyzed by flow cytometry.
CCRF-CEM cells, a PTEN null acute lymphoblastoid leukemia cell line, were treated with Compound B of 1, 2.5, or 5 μM or control of DMSO vehicle for a period of 4 days.

[2] = tested on: CCRF-CEM xenografts; experiment: Subcutaneous CCRF-CEM xenograft, bioluminescence; format: in vivo, mice; conditions: 10 mg/kg for 4 days, subcutaneous tumors
Method: Luminescent CCRF-CEM (CEM-luc) cells were generated by lentiviral infection with FUW-luc and selection with neomycin. Luciferase expression was verified with the Dual-Luciferase Reporter Assay kit (Promega). CEM-luc cells (2.5×10^6) embedded in Matrigel (BD Biosciences) were injected in the flank of NOD.Cg-Prkdc^scid Il2rg^tmlWjl/Sz mice. After 1 week, mice were treated by oral gavage with vehicle (0.5% methyl cellulose, 0.1% Tween-80) or compound every 8 hours daily for 4 days. Mice were anesthetized by isoflurane inhalation […] of D-luciferin ([…], Xenogen). Photonic emission was imaged with the In Vivo Imaging System (IVIS, Xenogen). Tumor bioluminescence was quantified by integrating the photonic flux (photons per second) through a region encircling each tumor using the LIVING IMAGES software package (Xenogen).
(§1) To assess the in vivo relevance of these observations, mice with subcutaneous or intravenous CCRF-CEM cells were treated with either Compound B or DMSO vehicle. In the subcutaneous xenographs, luciferase expressing CCRF-CEM cells were injected into the flanks of immunodeficient mice and allowed to grow for 1 week before administering vehicle control or 10 mg/kg of Compound B for a period of 4 days. In the intravenous xenographs, treatment commenced 3-day post-injection of tumor cells for a period of 7 days.

[3] = tested on: CCRF-CEM cells; experiment: Immunoblot of signaling and pro-apoptotic pathways in CCRF-CEM cells; format: cell-based
Method: Cell lysates (from cell lines or thymocytes) were prepared on ice in M-PER Mammalian Protein Extraction reagent (Pierce) containing a cocktail of protease and phosphatase inhibitors as described in Swat, W. et al., Essential role of PI3 Kdelta and PI3 Kgamma in thymocyte survival, Blood 107, 2415-2422 (2006). Equal amounts of total protein from lysates were separated using SDS-PAGE, transferred to PVDF membrane (Immobilon-P, Millipore). Membranes were incubated overnight incubation with appropriate primary antibodies. Bound antibodies were visualized with HRP-conjugated secondary antibodies and ECL chemistry (SuperPico West, Pierce).
The ability of Compound B treatment to interfere with proapoptotic effectors such as the BH3-only pro-apoptotic protein BAD and to repress the expression of BIM was also examined. CCRF-CEM cells were treated with Compound B ranging from 0, 0.25, 0.5, 1.0, 2.5, 5.0 and 10 μM.

[4] = tested on: primary T-ALL tumors; experiment: Viability of primary T-ALL tumors; format: cell-based, human; conditions: 1.0, 2.5, and 5.0 μM, 72 hours
Method: Cryopreserved samples from the Columbia Presbyterian Hospital, the Erasmus MC-Sophia Children's Hospital, and the University of Padua were used. All samples were collected with informed consent and supervised by the institutes' review boards and the Acute Lymphoblastic Leukemia Strategic Scientific Committee.
For primary T-ALL samples, cell viability was determined using the BD Cell Viability kit (BD Biosciences) and fluorescent counting beads as previously described in Armstrong, F. et al., NOTCH is a key regulator of human T-cell acute leukemia initiating cell activity, Blood 113, 1730-1740 (2009). Cells were plated with MS5-DL1 stroma cells. After 72 hours following treatment, cells were harvested and stained with an APC-conjugated anti-human CD45 according to the manufacturer's instructions. For solid tumor cell lines, cellular viability was determined using the AlamarBlue kit (Invitrogen). About 10,000 cells in 100 μL of media containing 10% FBS were aliquoted into individual wells of a 96-well plate and treated with vehicle (DMSO) or compound in triplicate for 24 hours. Ten μL of AlamarBlue reagent was added to each well and incubated for 4 hours at 37° C. with 5% CO2. Fluorescence was measured with an excitation wavelength at 530 to 560 nm and emission wavelength at 590 nm using Spectramax M5 plate reader (Molecular Devices, Sunnyvale, Calif.). […]

[5] = tested on: CCRF-CEM xenograft; experiment: Intravenous (systemic) CCRF-CEM xenograft, survival; format: in vivo, mice; conditions: treatment for 7 days from 3 days post-injection; vehicle control 23 days
Method: CCRF-CEM cells (5×10^6) were injected intravenously in fourteen NOD.Cg-Prkdc^scid Il2rg^tmlWjl/Sz mice. After 3 days, mice were segregated into two groups that received compound or vehicle for 7 days. Mice in both groups were then followed until moribund and euthanized.
as §1

[6] = tested on: PTEN null T-ALL; experiment: Diseased Lck/PTEN^fl/fl mice with PTEN null T-ALL; format: in vivo
Method: Mouse whole blood was incubated with appropriate antibodies and processed using the BD Bioscience BD FACS Lysing Solution according to the manufacturer's instructions. Immediately after lysis, cells were permeabilized with 0.025% Tween-20 in lysing solution for 15 minutes, then incubated with Ki67 antibodies. Single cell suspensions of thymocytes were isolated and stained with the appropriate antibodies as described in Swat, W. et al., Essential role of PI3 Kdelta and PI3 Kgamma in thymocyte survival, Blood 107, 2415-2422 (2006).
All mice were kept in specific pathogen-free facility at Columbia University Medical Center. All procedures were performed in accordance with the guidelines of the Institutional Animal Care and Use Committee. Lck-cre, NOD.Cg-Prkdc^scid Il2rg^tmlWjl/Sz and Gt(ROSA)26Sor^tml(Luc)Kael/J mice were obtained from the Jackson Laboratory. Mice deficient for PTEN in the T-cell lineage were generated by crossing Lck-cre with floxed PTEN. P110γ^−/− and p110δ^−/− mice as described in Swat, W. et al., Essential role of PI3 Kdelta and PI3 Kgamma in thymocyte survival, Blood 107, 2415-2422 (2006). The animals were intercrossed with Lck-cre/PTEN^fl/fl animals to generate mice homozygous mutant for either p110γ or p110δ and PTEN or homozygous mutant for p110γ, 110δ, and PTEN.
Lck/PTEN^fl/fl mice were crossed with the mice having a luciferase cDNA, preceded by a LoxP-stop-LoxP cassette was introduced into the ubiquitously expressed ROSA26 locus. […] The results are consistent with the reduction in whole blood cells and CD4 single positive population of tumor cells.
Lck/PTEN^fl/fl mice having T-ALL were administered with Compound B at an oral dose of 10 mg/kg every 8 hours or DMSO vehicle for a period of 7 days. […] Compound B extended the median survival to 45 days compared to 7.5 days for the vehicle group (data not shown).
Diseased Lck/PTEN^fl/fl mice (i.e. Lck/PTEN^fl/fl mice diagnosed with T-ALL) were treated with Compounds B for a period of 7 days. Mice were examined for sequential blood counts, peripheral smears, and flow cytometric analyses. […] Forward scatter (FSC) and Ki67 staining were indicators of cell size and proliferation, respectively; and apoptosis was detected by assessing the […] population after PI staining.
PTEN^fl/fl mice were crossed with the mice having a luciferase cDNA, preceded by a LoxP-stop-LoxP cassette was introduced into the ubiquitously expressed ROSA26 locus. Progeny were then crossed with Lck-cre transgenics to delete PTEN in T-cell progenitors and induce expression of luciferase. Imaging on T-ALL tumor bearing mice was performed at Day 0 and 4 after treatment of Compound B or vehicle.

[7] = target: T1, PI3K p110β (Mus musculus, UniProt Q8BTI9); experiment: Cellular p110β signaling: LPA-stimulated MEFs, pAkt Western blot; format: cell-based, murine; conditions: cellular assay, read-out: EC50 p110β
T1 construct: endogenous in cells; host or cells: murine embryo fibroblasts (MEFs)
T1 sequence (Q8BTI9 whole entry): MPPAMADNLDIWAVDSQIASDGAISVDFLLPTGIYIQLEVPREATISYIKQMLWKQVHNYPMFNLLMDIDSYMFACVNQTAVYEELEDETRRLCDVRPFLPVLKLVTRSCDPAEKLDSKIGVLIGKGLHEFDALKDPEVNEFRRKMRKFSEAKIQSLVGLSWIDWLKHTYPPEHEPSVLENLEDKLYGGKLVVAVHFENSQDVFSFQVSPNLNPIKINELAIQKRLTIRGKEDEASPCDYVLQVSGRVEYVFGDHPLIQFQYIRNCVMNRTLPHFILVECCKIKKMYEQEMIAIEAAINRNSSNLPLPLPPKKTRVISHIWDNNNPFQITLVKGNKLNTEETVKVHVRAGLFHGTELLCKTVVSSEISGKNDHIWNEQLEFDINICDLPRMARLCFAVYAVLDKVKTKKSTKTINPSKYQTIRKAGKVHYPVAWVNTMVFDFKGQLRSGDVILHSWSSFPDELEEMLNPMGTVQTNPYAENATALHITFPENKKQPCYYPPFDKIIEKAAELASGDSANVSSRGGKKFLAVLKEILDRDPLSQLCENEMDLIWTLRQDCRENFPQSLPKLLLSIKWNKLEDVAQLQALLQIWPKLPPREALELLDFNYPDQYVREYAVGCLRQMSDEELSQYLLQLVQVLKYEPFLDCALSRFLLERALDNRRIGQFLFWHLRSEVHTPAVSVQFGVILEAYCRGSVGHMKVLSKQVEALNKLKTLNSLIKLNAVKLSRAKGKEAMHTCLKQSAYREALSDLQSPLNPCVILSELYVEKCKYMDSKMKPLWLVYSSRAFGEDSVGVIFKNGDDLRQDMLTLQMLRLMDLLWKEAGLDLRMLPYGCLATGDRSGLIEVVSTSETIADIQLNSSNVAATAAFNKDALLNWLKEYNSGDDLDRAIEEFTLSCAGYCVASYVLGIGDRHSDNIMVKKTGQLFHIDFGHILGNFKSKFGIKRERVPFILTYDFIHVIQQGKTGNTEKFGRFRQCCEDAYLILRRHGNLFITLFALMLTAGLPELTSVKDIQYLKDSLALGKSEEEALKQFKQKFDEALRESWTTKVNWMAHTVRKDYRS
T1 sequence (P26450 whole entry partner): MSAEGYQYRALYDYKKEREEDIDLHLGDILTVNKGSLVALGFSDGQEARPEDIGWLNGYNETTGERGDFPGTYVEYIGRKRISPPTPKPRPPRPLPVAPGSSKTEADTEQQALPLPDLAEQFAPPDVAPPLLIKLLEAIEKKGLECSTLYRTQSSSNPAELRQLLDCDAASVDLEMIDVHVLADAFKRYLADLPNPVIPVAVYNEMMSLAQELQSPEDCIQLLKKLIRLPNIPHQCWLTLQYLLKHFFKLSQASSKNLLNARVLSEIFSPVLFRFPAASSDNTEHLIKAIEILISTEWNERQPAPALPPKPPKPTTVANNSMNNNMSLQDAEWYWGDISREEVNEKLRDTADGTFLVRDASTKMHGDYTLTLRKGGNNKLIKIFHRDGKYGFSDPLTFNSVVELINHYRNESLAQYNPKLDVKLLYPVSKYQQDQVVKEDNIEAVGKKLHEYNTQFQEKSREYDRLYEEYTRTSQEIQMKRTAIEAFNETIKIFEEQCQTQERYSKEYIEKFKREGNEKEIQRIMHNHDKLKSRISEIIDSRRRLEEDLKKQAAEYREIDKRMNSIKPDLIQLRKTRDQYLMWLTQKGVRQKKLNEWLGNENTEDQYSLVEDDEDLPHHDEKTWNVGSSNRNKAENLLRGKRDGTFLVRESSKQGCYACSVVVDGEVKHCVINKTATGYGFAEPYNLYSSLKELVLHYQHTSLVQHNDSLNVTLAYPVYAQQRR
Method: (§3) To analyze PI3K p110α and p110β signaling, murine embryo fibroblast (MEFs) were removed from FBS and starved for 2 hours followed by stimulation with 10 ng/mL of PDGF (Cell Signaling Technologies, Danvers, Mass.) or 10 μM of LPA (Echelon, Salt Lake City, Utah) for 10 minutes at 37° C., respectively. After washing once in cold phosphate-buffered saline (PBS), the cell pellet was resuspended in 1× cell lysis buffer (Cell Signaling Technologies) supplemented with mini protease inhibitor mix (Roche, Indianapolis, Ind.), phosphate inhibitor cocktail set I and II (Calbiochem, San Diego, Calif.) for 15 minutes on ice. Whole-cell lysates were obtained by centrifugation at 16,000 g for 10 minutes at 4° C., and the soluble protein was analyzed by Western blotting for Akt and pAkt levels. To analyze PI3K p110δ and p110γ signaling, basophil activation was measured in isolated PBMC or whole blood using the Flow2 CAST kit according to the manufacture's standardized methods (Buhlman Laboratories AG, Switzerland). Briefly, p110δ was activated with anti-FCεRI and p110γ was activated with fMLP (2 μM) in the absence or presence of compounds. To monitor the basophil cell population and cellular activation, anti-CD63-FITC and anti-CCR3-PE antibodies were added to each sample. Cells were fixed and analyzed on a FC500 MPL flow cytometer (Beckman Coulter, Brea, Calif.).

[8] = tested on: pAkt in B Cell Malignancies; experiment: pAkt activity, B cell malignancies; format: cell-based; conditions: N = 7
Source text: (§2) Cellular viability and pAkt activity were used to determine effects of Compounds A, C, and D in solid tumor, B-cell malignancies, and T-cell malignancies.

[9] = tested on: Solid tumor; experiment: Cellular viability, solid tumor; format: cell-based; conditions: N = 14
Method: For primary T-ALL samples, cell viability was determined using the BD Cell Viability kit (BD Biosciences) and fluorescent counting beads as previously described in Armstrong, F. et al., NOTCH is a key regulator of human T-cell acute leukemia initiating cell activity, Blood 113, 1730-1740 (2009). Cells were plated with MS5-DL1 stroma cells. After 72 hours following treatment, cells were harvested and stained with an APC-conjugated anti-human CD45 according to the manufacturer's instructions. For solid tumor cell lines, cellular viability was determined using the AlamarBlue kit (Invitrogen). About 10,000 cells in 100 μL of media containing 10% FBS were aliquoted into individual wells of a 96-well plate and treated with vehicle (DMSO) or compound in triplicate for 24 hours. Ten μL of AlamarBlue reagent was added to each well and incubated for 4 hours at 37° C. with 5% CO2. Fluorescence was measured with an excitation wavelength at 530 to 560 nm and emission wavelength at 590 nm using Spectramax M5 plate reader (Molecular Devices, Sunnyvale, Calif.).
as §2

[10] = tested on: T Cell Malignancies; experiment: Cellular viability, T cell malignancies; format: cell-based; conditions: N = 7
Source text: as §2

[11] = tested on: B Cell Malignancies; experiment: Cellular viability, B cell malignancies; format: cell-based; conditions: N = 7
Source text: as §2

[12] = target: PI3K p110α (Mus musculus, UniProt P42337); experiment: Cellular p110α signaling: PDGF-stimulated MEFs, pAkt Western blot; format: cell-based, murine; conditions: cellular assay, MEFs, PDGF; read-out: EC50 p110α
PI3K p110α (Mus musculus, UniProt P42337), sequence (P42337 whole entry): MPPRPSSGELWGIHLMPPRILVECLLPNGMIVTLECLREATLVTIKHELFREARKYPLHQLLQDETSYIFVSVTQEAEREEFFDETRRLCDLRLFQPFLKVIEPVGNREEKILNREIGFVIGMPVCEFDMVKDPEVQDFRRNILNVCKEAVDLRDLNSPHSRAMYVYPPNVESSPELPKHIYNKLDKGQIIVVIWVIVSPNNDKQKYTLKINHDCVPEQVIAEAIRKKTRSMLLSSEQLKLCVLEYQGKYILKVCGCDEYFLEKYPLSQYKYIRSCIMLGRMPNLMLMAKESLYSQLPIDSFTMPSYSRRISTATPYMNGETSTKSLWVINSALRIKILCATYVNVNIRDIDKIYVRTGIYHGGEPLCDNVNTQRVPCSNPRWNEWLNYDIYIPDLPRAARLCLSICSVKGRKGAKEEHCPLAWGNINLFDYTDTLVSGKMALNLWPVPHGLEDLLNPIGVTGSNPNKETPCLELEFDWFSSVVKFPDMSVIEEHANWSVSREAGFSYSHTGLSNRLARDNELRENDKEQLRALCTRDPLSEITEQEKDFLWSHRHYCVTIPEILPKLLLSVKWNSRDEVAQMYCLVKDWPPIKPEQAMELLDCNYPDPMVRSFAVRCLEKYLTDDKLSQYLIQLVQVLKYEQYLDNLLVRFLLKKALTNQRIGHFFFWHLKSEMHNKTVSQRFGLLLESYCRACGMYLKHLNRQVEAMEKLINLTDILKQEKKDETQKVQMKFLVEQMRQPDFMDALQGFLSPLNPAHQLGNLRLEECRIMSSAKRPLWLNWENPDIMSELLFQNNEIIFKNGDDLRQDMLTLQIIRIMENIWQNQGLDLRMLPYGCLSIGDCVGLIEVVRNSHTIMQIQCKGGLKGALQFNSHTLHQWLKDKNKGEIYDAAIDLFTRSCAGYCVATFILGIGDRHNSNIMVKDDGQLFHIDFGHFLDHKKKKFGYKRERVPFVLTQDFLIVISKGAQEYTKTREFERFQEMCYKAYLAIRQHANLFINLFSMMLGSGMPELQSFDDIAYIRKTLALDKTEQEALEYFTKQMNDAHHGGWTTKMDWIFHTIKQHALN
PI3K p110α (Mus musculus, UniProt P42337), sequence (P26450 whole entry partner): as the sequence (P26450 whole entry partner) above
Method: as §3

[13] = target: T2, PI3K p110γ (Homo sapiens, UniProt P48736); experiment: SelectScreen in vitro kinase inhibitor assay, p110γ; format: biochemical; conditions: ATP at Km
[14] = target: PI3K p110α (Homo sapiens, UniProt P42336); experiment: biochemical
[15] = target: T3, PI3Kδ (p110δ) (Homo sapiens, UniProt O00329); experiment: TR-FRET enzymatic assay, PI3Kδ; format: biochemical
T3 construct: made in house
T3 sequence (O00329 whole entry): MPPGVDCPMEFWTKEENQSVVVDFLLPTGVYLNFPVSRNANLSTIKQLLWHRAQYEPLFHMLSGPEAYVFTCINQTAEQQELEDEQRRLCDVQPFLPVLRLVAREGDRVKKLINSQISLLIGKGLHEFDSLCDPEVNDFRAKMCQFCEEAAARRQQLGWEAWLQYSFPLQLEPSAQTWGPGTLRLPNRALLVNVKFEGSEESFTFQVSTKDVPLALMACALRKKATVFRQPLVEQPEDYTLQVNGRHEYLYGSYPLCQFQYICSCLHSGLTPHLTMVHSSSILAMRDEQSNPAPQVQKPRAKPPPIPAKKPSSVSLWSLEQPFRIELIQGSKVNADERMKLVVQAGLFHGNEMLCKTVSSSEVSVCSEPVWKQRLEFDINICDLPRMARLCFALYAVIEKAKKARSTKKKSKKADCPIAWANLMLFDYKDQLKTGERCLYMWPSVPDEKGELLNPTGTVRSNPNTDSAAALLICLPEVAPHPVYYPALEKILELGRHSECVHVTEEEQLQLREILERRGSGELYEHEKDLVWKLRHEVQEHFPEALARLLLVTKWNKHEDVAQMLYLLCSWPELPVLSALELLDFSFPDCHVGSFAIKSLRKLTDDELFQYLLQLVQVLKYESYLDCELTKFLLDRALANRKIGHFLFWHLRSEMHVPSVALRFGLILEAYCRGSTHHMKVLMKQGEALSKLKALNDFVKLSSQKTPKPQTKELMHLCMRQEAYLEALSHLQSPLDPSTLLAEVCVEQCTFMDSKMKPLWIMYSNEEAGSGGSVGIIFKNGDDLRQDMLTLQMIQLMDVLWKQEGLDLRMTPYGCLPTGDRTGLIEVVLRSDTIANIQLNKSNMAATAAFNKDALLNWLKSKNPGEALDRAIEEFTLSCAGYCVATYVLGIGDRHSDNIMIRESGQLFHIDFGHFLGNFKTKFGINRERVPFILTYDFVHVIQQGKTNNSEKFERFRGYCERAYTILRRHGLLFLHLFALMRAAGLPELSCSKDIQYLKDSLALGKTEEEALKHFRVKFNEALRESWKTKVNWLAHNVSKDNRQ
T3 sequence (P27986 whole entry partner): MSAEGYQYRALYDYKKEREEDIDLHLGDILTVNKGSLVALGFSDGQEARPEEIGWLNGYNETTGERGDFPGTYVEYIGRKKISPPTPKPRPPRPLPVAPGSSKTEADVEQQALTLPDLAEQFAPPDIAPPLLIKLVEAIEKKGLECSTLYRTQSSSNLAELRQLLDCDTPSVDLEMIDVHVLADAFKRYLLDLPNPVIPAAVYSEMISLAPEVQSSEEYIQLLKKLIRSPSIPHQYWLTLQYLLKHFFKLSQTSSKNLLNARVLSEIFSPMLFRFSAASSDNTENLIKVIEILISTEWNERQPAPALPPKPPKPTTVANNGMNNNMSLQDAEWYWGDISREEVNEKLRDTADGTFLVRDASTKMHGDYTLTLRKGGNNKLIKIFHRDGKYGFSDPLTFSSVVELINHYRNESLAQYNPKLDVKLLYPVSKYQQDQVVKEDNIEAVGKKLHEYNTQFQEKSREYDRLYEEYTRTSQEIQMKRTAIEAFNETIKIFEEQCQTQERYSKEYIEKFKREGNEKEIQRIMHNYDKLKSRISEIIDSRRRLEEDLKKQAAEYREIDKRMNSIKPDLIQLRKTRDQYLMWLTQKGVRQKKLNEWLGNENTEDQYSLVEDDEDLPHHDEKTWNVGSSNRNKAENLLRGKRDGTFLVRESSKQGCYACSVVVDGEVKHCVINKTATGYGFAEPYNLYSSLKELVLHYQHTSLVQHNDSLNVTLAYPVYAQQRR
Method: (§4) Enzymatic activity of the class I PI3K isoforms was measured using a time resolved fluorescence resonance energy transfer assay (TR-FRET) that monitors formation of the product 3,4,5-inositol triphosphate molecule (PIP3), as it competes with fluorescently labeled PIP3 for binding to the GRP-1 pleckstrin homology domain protein. An increase in phosphatidylinositide 3-phosphate product results in a decrease in TR-FRET signal as the labeled fluorophore is displaced from the GRP-1 protein binding site. Class I PI3K isoforms were expressed and purified as heterodimeric recombinant proteins. All assay reagents and buffers for the TR-FRET assay were purchased from Millipore. […] After an assay reaction time of 30 minutes at 25° C., reactions were terminated with a final concentration of 10 mM EDTA, 10 nM labeled-PIP3, and 35 nM Europium labeled GRP-1 detector protein before reading TR-FRET on an Envision plate reader. IC50 values were calculated from the fit of the dose-response curves to a four-parameter equation. All IC50 values represent geometric mean values of a minimum of four determinations. These assays generally produced results within 3-fold of the reported mean.

[16] = tested on: pAkt in solid tumor; experiment: pAkt activity, solid tumor; format: cell-based; conditions: N = 14
Source text: as §2

[17] = tested on: pAkt in T Cell Malignancies; experiment: pAkt activity, T cell malignancies; format: cell-based; conditions: N = 7
Source text: as §2

[18] = target: T4, PI3Kβ (p110 β) (Homo sapiens, UniProt P42338); experiment: TR-FRET enzymatic assay, PI3Kβ; format: biochemical
T4 construct: made in house
Method: as §4

[19] = target: T5, PI3K p110β (Homo sapiens, UniProt P42338); experiment: SelectScreen in vitro kinase inhibitor assay, p110β; format: biochemical
T5 construct: purchased Invitrogen Ltd. (SelectScreen service)

[20] = target: PI3Kα (p110α) (Homo sapiens, UniProt P42336); experiment: biochemical
Method: Enzymatic activity of the class I PI3K isoforms was measured using a time resolved fluorescence resonance energy transfer assay (TR-FRET) that monitors formation of the product 3,4,5-inositol triphosphate molecule (PIP3), as it competes with fluorescently labeled PIP3 for binding to the GRP-1 pleckstrin homology domain protein. An increase in phosphatidylinositide 3-phosphate product results in a decrease in TR-FRET signal as the labeled fluorophore is displaced from the GRP-1 protein binding site. Class I PI3K isoforms were expressed and purified as heterodimeric recombinant proteins. All assay reagents and buffers for the TR-FRET assay were purchased from Millipore. […] IC50 values were calculated from the fit of the dose-response curves to a four-parameter equation. All IC50 values represent geometric mean values of a minimum of four determinations. These assays generally produced results within 3-fold of the reported mean.

[21] = target: T2, PI3K p110γ; experiment: Cellular p110γ signaling: basophil activation with fMLP (Flow2 CAST); format: cell-based; parameters: endogenous in cells; host or cells: basophils in isolated PBMC or whole blood; conditions: cellular assay
Method: as §3

[22] = target: T6, PI3K p110δ (Homo sapiens, UniProt O00329); experiment: SelectScreen in vitro kinase inhibitor assay, p110δ; format: biochemical
T6 construct: endogenous in cells; host or cells: basophils in isolated PBMC or whole blood
T6 sequence (O00329 whole entry): as the sequence (O00329 whole entry) above
T6 sequence (P27986 whole entry partner): as the sequence (P27986 whole entry partner) above

[23] = target: T6, PI3K p110δ; experiment: Cellular p110δ signaling: basophil activation with anti-FCεRI (Flow2 CAST); format: cell-based; conditions: cellular assay
Method: as §3

[24] = target: T7, PI3Kγ (p110γ) (Homo sapiens, UniProt P48736); experiment: TR-FRET enzymatic assay, PI3Kγ; format: biochemical; conditions: 2×Km ATP, geometric mean of at least four determinations
T7 construct: made in house
Method: as §4

Compound: Cc1ccccc1-n1c(C(C)Nc2nc(N)nc3[nH]cnc23)nc2cccc(C)c2c1=O (centres unmarked) [Compound B, 2-(1-(2-amino-9H-purin-6-ylamino)ethyl)-5-methyl-3-o-tolylquinazolin-4(3H)-one]
apoptosis [1]: promoted apoptosis | proliferation [1]: prevented proliferation | difference in luminescence, treated versus vehicle treated animals [2]: 5 fold | phosphorylation of GSK3β and mTOR ([3]; 0.25 to 10 μM): reduction | expression of BIM (including the L and S isoforms) ([3]; Compound B treatment): enhanced expression | phosphorylation of BAD ([3]; Compound B treatment): reduction | Akt/PKB (Ser473) phosphorylation ([3]; […]): reduction and complete abrogation | viability of tumor cells [4]: reduced | median survival time [5]: 35 days | weights of thymi, liver, spleen, and kidneys ([6]; Compound B for 7 days, versus vehicle control, P<0.01): significantly less | WBC ([6]; Compound B treatment for 7 days, by Day 4): significant reduction | bioluminescent imaging signals ([6]; Compound B treatment, Day 4, versus vehicle): dramatically lower | apoptosis (sub-G0 population after propidium iodide staining) ([6]; Compound B treatment, Day 4 through Day 7): increase in apoptosis | median survival ([6]; oral 10 mg/kg every 8 hours for 7 days, vehicle group 7.5 days): 45 days

EC50 [7]: 1900 nM | EC50 [8]: 367 nM | EC50 [9]: 11.4 µM | EC50 [12]: > 20 µM
Compound: CC[C@H](Nc1ncnc2[nH]cnc12)c1nc2cccc(F)c2c(=O)n1-c1ccccc1 [Compound C]
EC50 [10]: > 25 µM | EC50 [11]: 662 nM

Compound: C[C@H](Nc1ncnc2[nH]cnc12)c1nc2ccc(F)cc2c(=O)n1-c1ccccc1 [Compound D]
EC50 [7]: 1200 nM | IC50 [13]: 25 nM | EC50 [8]: 350 nM | IC50 [14]: 303 nM | IC50 [15]: 9.3 nM | EC50 [16]: 987 nM | EC50 [17]: 988 nM | EC50 [9]: 4.75 µM | IC50 [18]: 3.4 µM | IC50 [19]: 153 nM | EC50 [10]: 7.7 µM | IC50 [20]: 7.8 µM | EC50 [11]: 540 nM | EC50 [21]: 2350 nM | IC50 [22]: 0.9 nM | EC50 [12]: > 20 µM | EC50 [23]: 4.9 nM | IC50 [24]: 1000 nM
